Laboratory results published in patent EP0078757A1, “Imines of 2-(4-phenyl-piperazinylethyl) anilines, process for their preparation and their use in medicine” (CORTIAL S.A., priority 1981, dated 1983).
Where two headings read alike, the source gives them in different places.

What was measured:
souris Swiss = assay: Oral (intragastric) toxicity, mortality in mice; type: in vivo; details: mouse, solvent as in the source
Description: La mortalité induite par ces substances a été déterminée chez la souris Swiss exempte d'organismes pathogènes spécifiques. Les animaux sont stabulés en salle climatisée 24 à 48 heures avant le début de l'expérimentation. Les substances sont administrées soit par voie intragastrique en solution dans de l'huile d'olive ou du tween, soit par voie intrapéritonéale en solution dans du tween. Les résultats sont exprimés dans les tableaux I et II par le pourcentage de mortalité en fonction de la dose administrée ou par la dose induisant 50 % de mortalité (DL 50) déterminée par la méthode de Bliss.

[1] = test system: anaphylaxie passive cutanée; assay: Passive cutaneous anaphylaxis test in rats; type: in vivo, rats mâles Sprague Dawley; details: for ED50: read-out: DE 50 voie po
Description: L'activité antiallergique a été déterminée dans le test de l'anaphylaxie passive cutanée de la façon suivante. On administre à des rats mâles Sprague Dawley par voie intradermique 0,1 ml de sérum riche en IgE. Ce sérum a été fabriqué en sensibilisant des rats Sprague-Dawley par une injection ip d'ovalbumine et de suspension de Bordetella pertusis suivie 20 j après par une nouvelle injection d'ovalbumine. 24 heures après administration du sérum on injecte par voie iv 0,5 ml d'une solution contenant 8,25 mg/kg d'ovalbumine et 26,4 mg/kg de bleu d'Evans dans un tampon pH 7,05. Au bout de 30 mn les animaux sont sacrifiés; chaque papule est découpée, pesée et mise à incuber pendant 4 j à 37°C dans 15 g de formamide. La quantité de bleu d'Evans contenue dans chaque papule est déterminée par la mesure de la densité optique du mélange. Le produit à tester est administré par voie orale ou intrapéritonéale en suspension homogène en présence de tween 80, 10 mn avant l'injection déclenchante. Son activité est appréciée par le pourcentage de diminution de la quantité de bleu d'Evans ayant diffusé dans la papule. Les DE 50 de certains produits de la présente invention sont indiquées dans le tableau V.

motilité chez la souris = assay: Motility (actimeter) in mice, sedative effect; type: in vivo; details: ip route, mouse, Litchfield Wilcoxon method
Description: L'effet des substances sur la motilité est appréciée chez la souris en utilisant un actimètre. Les animaux sont placés dans la cage d'activométrie et à partir du nombre de déplacements enregistrés par l'appareil,on obtient pour chaque dose considérée le pourcentage de l'effet observé par rapport au lot témoin. Ces pourcentages sont reportés sur un papier à l'échelle log-probit et la méthode de Litchfield Wilcoxon permet de calculer la dose efficace 50 sédative. Le tableau VI donne les DE 50 sédatives pour un certain nombre de produits faisant l'objet de l'invention.

[2] = oral route, rat, given 10 min before challenge, decrease of Evans blue in the papule, limits in brackets

In the case of “(((trifluorométhyl-3 phényl)-4 pipérazinyl)-2 éthyl)-6 N-pyridylidène-3 benzodioxol-1,3 yl-5 amine [COR 3415]”, the “% de mortalité en fonction de la dose exprimée en mg/kg” value (souris Swiss; dose 500 mg/kg) was 0%, the “% de mortalité en fonction de la dose exprimée en mg/kg” value (souris Swiss; dose 750 mg/kg) was 50% and the “% de mortalité en fonction de la dose exprimée en mg/kg” value (souris Swiss; dose 1000 mg/kg) was 60%. For the same compound, the “% de mortalité en fonction de la dose exprimée en mg/kg” value (souris Swiss; dose 2000 mg/kg) was 70% and the “DE 50 voie po” value [1, 2] was 20 mg/kg.

In the case of “(phényl-4pipérazinyléthyl)-2 N-pyridylidène-3 aniline [COR 3412]”, the “DE 50 voie ip” value ([1]; intraperitoneal route, rat, given 10 min before challenge, decrease of Evans blue in the papule, limits in brackets) was 7,52 (3,31 - 17,38) mg/kg, the “DE 50 voie po” value [1, 2] was 11,9 (7,9 - 18,2) mg/kg and the “DE 50 sédation” value (motilité chez la souris) was 4 mg/kg.

For CC(CN1c2ccccc2Sc2ccccc21)N(C)C (stereo not shown) [Prométhazine, reference compound], the ED50 [1, 2] was 2.9 mg/kg.

Compound CN(C)CCCN1c2ccccc2Sc2ccc(Cl)cc21 [Chlorpromazine, reference compound] has an ED50 ([1]; Rattus norvegicus, po) of 4.9 mg/kg.
